Where two headings read alike, the source gives them in different places.
Tests used:
EstSP1 [1] = conditions: 40 °C; 0.1-0.5 mM substrate; 3 min; text prints 247
EstSP1 [2] = assay: p-nitrophenol release at […] nm, Lineweaver-Burk; assay type: biochemical, Sphingomonas sp. PAMC 26605; conditions: 40 °C; 0.1-0.5 mM substrate; 3 min; Table 3 and text print 92.5

CCCC(=O)Oc1ccc([N+](=O)[O-])cc1 [p-nitrophenyl butyrate]
Km (EstSP1 [1]): 249 ± 7.8 µM
Km (EstSP1 [2]): 92 ± 1.2 µM
